Read-outs that look alike come from different tables or passages of the source.
Key:
Assay in all cases: NCI human tumor cell line panel growth inhibition
Assay type in all cases: cell-based
[1] = test system: U251 CNS cancer cells; conditions: Homo sapiens, U-251, read-out: Log10 GI50 (converted)
[2] = test system: SF-295 CNS cancer cells; conditions: read-out: Log10 GI50 (converted)
[3] = test system: NCI-H522 lung cancer cells; conditions: read-out: Log10 GI50 (converted)
[4] = test system: UO-31 renal cancer cells; conditions: read-out: Log10 GI50 (converted)
[5] = test system: RXF-631 renal cancer cells; conditions: Homo sapiens, read-out: Log10 GI50 (converted)
[6] = test system: OVCAR-3 ovarian cancer cells; conditions: Homo sapiens
[7] = test system: HOP-18 lung cancer cells; conditions: Homo sapiens, read-out: Log10 GI50 (converted)
[8] = test system: COLO-205 colon cancer cells; conditions: Homo sapiens; COLO-205, colon cancer; read-out: Log10 GI50 (converted)
[9] = test system: HOP-62 lung cancer cells; conditions: Homo sapiens, read-out: Log10 GI50 (converted)
[10] = test system: HT29 colon cancer cells; conditions: Homo sapiens, HT-29, read-out: Log10 GI50 (converted)
[11] = test system: LXPL-529 lung cancer cells; conditions: Homo sapiens, read-out: Log10 GI50 (converted)
[12] = test system: NCI-H322M lung cancer cells; conditions: Homo sapiens, read-out: Log10 GI50 (converted)
[13] = test system: SNB-75 CNS cancer cells; conditions: Homo sapiens, read-out: Log10 GI50 (converted)
[14] = test system: OVCAR-8 ovarian cancer cells; conditions: Homo sapiens, read-out: Log10 GI50 (converted)
Description: (§1) The first screen measures the cytotoxicity against a panel of sixty different human tumor cell lines. This assay provides data regarding the general cytotoxicity of an individual compound.
(§2) The length of a bar is indicative of differential cytotoxicity against a specific type of tumor cells or tumor panels.
(§3) The antitumor cytotoxicity of the thiophene compounds tested in the first two in vitro assays was measured by a microculture assay using either 3-(4,5-dimethylthiazol-2-yl)-2,5-diphenyltetrazolium bromide (MTT) or sulforhodamine B (SRB). [M. R. Boyd in "Principles and Practices of Oncology," V. T. DeVita, Jr., S. Hellman and S. A. Rosenberg (Eds.), Vol. 3, PPO Updates, Number 10, 1989.] This assay has an advantage over in vivo assay in that results are obtained within a week as opposed to several months. The assay was carried out in 96-well microtiter plates. The MTT assay is based on the production of a dark blue formazan product by dehydrogenase in the mitochondria of live tumor cells after exposure to drug for 6 days [M. C. Alley, D. A. Scudiero, A. Monks, M. L. Hursey, M. J. Czerwinski, D. L. Fine, B. J. Abbott, J. G. Mayo, R. H. Shoemaker and M. R. Boyd, Cancer Res., 48, 589, 1988.] Thus, only live cells are stained and can be measured at 570 nm. The SRB assay is based on the binding of the anionic group to the basic amino acid residues of cellular proteins after exposure of tumor cells to drug for 2 days [P. Skehan, R. Storeng, D. Scudiero, A. Monks, J. McMahon, D. Vistica, J. T. Warren, H. Bohesch, S. Kenney and M. R. Boyd, J. Nat. Cancer Inst., 82, 1107, 1990.] Thus, the total protein (viability) can be measured at 564 nm.

[15] = test system: XP-498 CNS cancer cells; conditions: read-out: Log10 GI50 (converted)
Description: as §1, §2, §3

[16] = test system: SW-620 colon cancer cells; conditions: Homo sapiens, read-out: Log10 GI50 (converted)
Description: as §1, §2, §3

[17] = test system: UACC-257 melanoma cells; conditions: Homo sapiens, read-out: Log10 GI50 (converted)
[18] = test system: KM20L2 colon cancer cells; conditions: Homo sapiens, KM-20L2, read-out: Log10 GI50 (converted)
[19] = test system: DLD-1 colon cancer cells; conditions: Homo sapiens, read-out: Log10 GI50 (converted)
[20] = test system: TK-10 renal cancer cells; conditions: Homo sapiens, read-out: Log10 GI50 (converted)
[21] = test system: OVCAR-5 ovarian cancer cells; conditions: Homo sapiens, read-out: Log10 GI50 (converted)
[22] = test system: HCT-15 colon cancer cells; conditions: Homo sapiens, read-out: Log10 GI50 (converted)
[23] = test system: NCI-H226 lung cancer cells; conditions: Homo sapiens, read-out: Log10 GI50 (converted)
[24] = test system: A549/ATCC lung cancer cells; conditions: Homo sapiens, read-out: Log10 GI50 (converted)
[25] = test system: CAKI-1 renal cancer cells; conditions: Homo sapiens
[26] = test system: 786-0 renal cancer cells; conditions: read-out: Log10 GI50 (converted)
[27] = test system: RXF-393 renal cancer cells; conditions: Homo sapiens, read-out: Log10 GI50 (converted)
[28] = test system: NCI-H460 lung cancer cells; conditions: Homo sapiens, read-out: Log10 GI50 (converted)
[29] = test system: HCT-116 colon cancer cells; conditions: Homo sapiens, read-out: Log10 GI50 (converted)
[30] = test system: LOX IMVI melanoma cells; conditions: read-out: Log10 GI50 (converted)
[31] = test system: SN12C renal cancer cells; conditions: read-out: Log10 GI50 (converted)
[32] = test system: ACHN renal cancer cells; conditions: read-out: Log10 GI50 (converted)
[33] = test system: IGROV-1 ovarian cancer cells; conditions: Homo sapiens, read-out: Log10 GI50 (converted)
[34] = test system: SK-MEL-2 melanoma cells; conditions: read-out: Log10 GI50 (converted)
[35] = test system: SK-OV-3 ovarian cancer cells; conditions: Homo sapiens, read-out: Log10 GI50 (converted)
[36] = test system: NCI-H23 lung cancer cells; conditions: read-out: Log10 GI50 (converted)
[37] = test system: UACC-62 melanoma cells; conditions: Homo sapiens, read-out: Log10 GI50 (converted)
[38] = test system: EKVX lung cancer cells; conditions: read-out: Log10 GI50 (converted)
[39] = test system: M-14 melanoma cells; conditions: M14, read-out: Log10 GI50 (converted)
[40] = test system: HCC-2998 colon cancer cells; conditions: Homo sapiens, read-out: Log10 GI50 (converted)
[41] = test system: SF-268 CNS cancer cells; conditions: read-out: Log10 GI50 (converted)
[42] = test system: MALME-3M melanoma cells; conditions: read-out: Log10 GI50 (converted)
[43] = test system: A-498 renal cancer cells; conditions: Homo sapiens, A498, read-out: Log10 GI50 (converted)

Q: For OCc1ccc(-c2cccs2)s1, which GI50 [1] is on record?
A: 0.457 µM

Q: What about the GI50 [2] of the same molecule?
A: 38 µM

Q: And the GI50 [3]?
A: 95.5 µM

Q: And the GI50 [4]?
A: 38.9 µM

Q: And the GI50 [5]?
A: 0.813 µM

Q: And the GI50 ([6]; OVCAR-3, read-out: Log10 GI50 (converted))?
A: 2.34 µM

Q: What about the GI50 [7] of the same molecule?
A: 10.5 µM

Q: What about the GI50 [8] of the same molecule?
A: 3.63 µM

Q: What about the GI50 [9] of the same molecule?
A: 9.77 µM

Q: And the GI50 [10]?
A: 8.51 µM

Q: And the GI50 [11]?
A: 0.288 µM

Q: And the GI50 [12]?
A: 30.2 µM

Q: What about the GI50 [13] of the same molecule?
A: 0.389 µM

Q: And the GI50 [14]?
A: 52.5 µM

Q: And the GI50 [15]?
A: 3.72 µM

Q: And the GI50 [16]?
A: 4.68 µM

Q: What about the GI50 [17] of the same molecule?
A: 0.933 µM

Q: And the GI50 [18]?
A: 1.58 µM

Q: And the GI50 [19]?
A: 0.316 µM

Q: What about the GI50 [20] of the same molecule?
A: 0.234 µM

Q: And the GI50 [21]?
A: 12.9 µM

Q: And the GI50 [22]?
A: 35.5 µM

Q: What about the GI50 [23] of the same molecule?
A: 0.316 µM

Q: What about the GI50 [24] of the same molecule?
A: 8.91 µM

Q: What about the GI50 ([25]; CAKI-1, read-out: Log10 GI50 (converted)) of the same molecule?
A: 0.224 µM

Q: What about the GI50 [26] of the same molecule?
A: 32.4 µM

Q: And the GI50 [27]?
A: 57.5 µM

Q: What about the GI50 [28] of the same molecule?
A: 1.35 µM

Q: And the GI50 [29]?
A: 4.57 µM

Q: How did the GI50 [30] turn out when CC(=O)OCc1ccc(-c2ccc(-c3cccs3)s2)s1 was run?
A: 24 µM

Q: And the GI50 [31]?
A: 28.8 µM

Q: What about the GI50 [32] of the same molecule?
A: 17.8 µM

Q: What about the GI50 [33] of the same molecule?
A: 5.01 µM

Q: And the GI50 [1]?
A: < 0.01 µM

Q: What about the GI50 [34] of the same molecule?
A: 72.4 µM

Q: What about the GI50 [2] of the same molecule?
A: 18.2 µM

Q: And the GI50 [35]?
A: 91.2 µM

Q: And the GI50 [36]?
A: 19.5 µM

Q: And the GI50 [3]?
A: 13.2 µM

Q: And the GI50 [37]?
A: 17 µM

Q: And the GI50 [4]?
A: 18.6 µM

Q: And the GI50 [38]?
A: 24.5 µM

Q: What about the GI50 [5] of the same molecule?
A: < 0.01 µM

Q: What about the GI50 ([6]; OVCAR-3, ovarian cancer, read-out: Log10 GI50 (converted)) of the same molecule?
A: 0.0257 µM

Q: What about the GI50 [39] of the same molecule?
A: 39.8 µM

Q: What about the GI50 [7] of the same molecule?
A: 2.34 µM

Q: And the GI50 [8]?
A: 0.437 µM

Q: What about the GI50 [9] of the same molecule?
A: 24 µM

Q: And the GI50 [10]?
A: 30.2 µM

Q: What about the GI50 [11] of the same molecule?
A: < 0.01 µM

Q: And the GI50 [12]?
A: 19.5 µM

Q: What about the GI50 [13] of the same molecule?
A: < 0.01 µM

Q: And the GI50 [17]?
A: 0.0933 µM

Q: What about the GI50 [40] of the same molecule?
A: 24.5 µM

Q: What about the GI50 [18] of the same molecule?
A: 0.132 µM

Q: What about the GI50 [19] of the same molecule?
A: < 0.01 µM

Q: And the GI50 [41]?
A: 24.5 µM

Q: And the GI50 [20]?
A: 0.12 µM

Q: What about the GI50 [21] of the same molecule?
A: 26.3 µM

Q: What about the GI50 [22] of the same molecule?
A: 50.1 µM

Q: What about the GI50 [42] of the same molecule?
A: 32.4 µM

Q: And the GI50 [43]?
A: 0.0437 µM

Q: What about the GI50 [23] of the same molecule?
A: 0.324 µM

Q: And the GI50 [24]?
A: 6.61 µM

Q: What about the GI50 ([25]; CAKI-1, renal cancer, read-out: Log10 GI50 (converted)) of the same molecule?
A: 0.0182 µM

Q: And the GI50 [26]?
A: 18.6 µM

Q: And the GI50 [27]?
A: 18.2 µM

Q: And the GI50 [28]?
A: 1.51 µM
